Laboratory results taken from patent US6673902B2, “Cyclin D binding factor, and uses thereof” (St. Jude Children's Research Hospital, priority 1996, dated 2004).

What was measured:
[1] = tested on: DMP1-responsive promoter (pGL2BS2); assay: Transactivation of luciferase reporter plasmid under control of a DMP1-responsive promoter in NIH-3T3 fibroblasts; format: cell-based, mouse; details: vector without insert set to 1.0
Text: Coexpression of a D-type cyclin with DMP1 overrides the ability of DMP1 to transactivate a luciferase gene under the control of an artificial DMP1-responsive promoter (Table 4), as well as the ability of DMP1 to inhibit cell growth.

NIH-3T3 fibroblasts = assay: BrdU incorporation in transfected NIH-3T3 fibroblasts; format: cell-based, mouse; details: for % Cells BrdU Positive: Table 2, expression vector 3 μg/10 ml; for % Cells BrdU Positive in 10% FCS: nonstarved cells; for % Cells BrdU Positive in 0.1% FCS: starved cells
Method: BrdU is added to NIH-3T3 cells after the experimental treatment and the cells were incubated for twenty-two hours in DMEM plus 10% fetal calf serum (FCS). The cells were then stained for DMP1 expression and/or BrdU incorporation. The nucleic acids encoding the wildtype DMP1 and the deletion and point mutants had been constructed so as to express the corresponding proteins with Flag-tags. To stain for DMP1 expression, mouse monoclonal anti-Flag antibodies (12 μg/ml) [Kodak] were incubated with the cells in TBS-Ca^+ without FCS for one hour at room temperature. After washing the cells, horse anti-mouse biotinylated antibodies at a 1:500 dilution were added to the cells in TBS plus 5% FCS and incubated for 30 minutes at room temperature. After washing the cells, strefptavidin linked to Texas red [Amersham] was then added at a 1:500 dilution for 30 minutes at room temperature. To stain for BrdU incorporation, 1.5N HCl was added to the cells for ten minutes at room temperature to denature the DNA. After washing the cells, sheep anti-BrdU antibodies [Fitzgerald] at a 1:12 dilution were then added for one hour at room temperature. After washing the cells, rabbit FITC-conjugated anti-sheep antibodies [Vector] at 1:100 dilution was then incubated for 30 minutes at room temperature.
NIH-3T3 cells were placed on cover slides and transfected with the expression vectors (pFLEX-DMP1 or the corresponding vector containing the deletion or point mutants of mouse DMP1 plus or minus cyclin D or E) for fourteen hours. The cells were then washed twice and DMEM plus 10% FCS was added and the cells incubated for eight hours. Half of the cells were starved by washing twice with 0.1% FCS, and then incubated for twenty-four hours in 0.1% FCS in DMEM. The remaining cells were not starved but were incubated for twenty-four hours in DMEM plus 10% FCS without washing. BrdU was added to both groups of cells and the cells were incubated for twenty-two hours in DMEM plus 10% FCS.
The cells were then restimulated to enter the cell cycle synchronously with DMEM plus 10% FCS. At the same time, 5′-Bromo-2′ Deoxyuridine (BrdU) was added to the medium. The cells were fixed 22 hours later in methanol acetone (1:1) and stained for BrdU incorporation and DMP1 expression as described in the Materials and Methods.

[2] = tested on: 281 bp ARF promoter fragment; assay: Transactivation of ARF promoter-luciferase reporter in NIH-3T3 cells; format: cell-based, mouse; details: NIH-3T3, 281 bp ARF promoter fragment-luciferase
Method: Transactivation assays. NIH-3T3 cells were transfected with 4 μg of pGL2-ARFpro BamHI or its DMP1 binding site mutant, with or without increasing amount of pFLEX-DMP1, pEVRFO-Ets1, pCMV-Ets2, pRcRSV-Elfl, pdEB-Fli1, p(IEB-EWS-Fli1 or pCMV-E2F-1 (89-437), and 4 μg β-actin SEAP control vectors [Inoue and Sherr, Mol. Cell. Biol. 18: 1590-1600 (1998); Inoue et al., J. Biol. Chem. 273:29188-29194 (1998); Davis and Roussel, Gene 171:265-269 (1996); Baily et al., Mol. Cell. Biol. 14:3230-3241 (1994)]. Transfections and normalization of luciferase levels with internal control SEAP levels were performed as described [Inoue and Sherr, Mol. Cell. Biol. 18:1590-1600 (1998)].
Similarly, DMP1 deletion mutants defective in transactivation [Inoue and Sherr, Mol. Cell. […] Mutation of the DMP1 binding site within the ARF promoter [changing CCCGGATGC, (SEQ ID NO:33) to CCCGTCGAC, (SEQ ID NO:42)] also completely abolished transactivation by wild-type DMP1 (FIG. 14C, mutant reporter). Therefore, sequences within the −189 to −181 ARF promoter segment were the only ones responsible for DMP1-mediated transactivation. Although Ets1 could bind to a 23 base pair oligonucleotide containing the DMP1 consensus site (FIG. 14B), several Ets proteins were unable to induce significant reporter gene expression from the more complex 281 base pair ARF promoter (FIG. 14C). […]

32P-BS2 Probe = assay: EMSA with 32P-BS2 probe on transfection lysates of NIH-3T3 fibroblasts; format: binding; details: EMSA, 32P-BS2 probe, lysates of transfected NIH-3T3 fibroblasts
Method: Double-stranded oligonucleotides containing potential DMP1 binding sites (BS1 and BS2) and mutated versions (M1-M4) (FIG. 5B) are end-labeled with ^32P using the Klenow fragment of DNA polymerase and α-^32P-dATP (6000 Ci/mmol; Dupont NEN) (8). Nuclear extracts from mouse NIH-3T3 or CTLL cells are prepared with buffer containing 0.4 M NaCl (2). Mammalian cell extracts (15 μg protein) or Sf9 lysates (corresponding to 5×10^2 infected cells) containing ˜4 ng recombinant DMP1 are mixed with 3 ng of ^32P-labeled probe (1×10^5 cpm) in 15 ul Binding buffer containing 2.5 μg of poly(dI-dC) and 2.5 μg BSA and incubated at 4° C. for 30 minutes. For competition experiments, the indicated amounts of unlabeled oligonucleotides are added to the reactions before addition of the labeled probe. In some experiments, a bacterially produced GST-Ets2 fusion protein containing the complete Ets2 DNA-binding domain (10) is used in place of Sf9 extracts containing recombinant DMP1. Protein-DNA complexes are separated on nondenaturing 4% polyacrylamide gels as described (8). Where indicated, antiserum to DMP1 together with 2.5 μg salmon testis DNA (Sigma; used to reduce nonspecific DNA binding activity caused by serum addition) is preincubated with extracts for 30 minutes at 4° C. prior to initiation of binding reactions. Immune complexes are either removed by adsorption to protein A-Sepharose beads (immunodepletion experiments) or are allowed to remain (“supershift” experiments).
A series of deletion mutants and a point mutant of DMP1, K319E, (in which the lysine at position 319 of SEQ ID NO:1 is replaced by a glutamic acid) were prepared and used to determine the DNA-binding domain of DMP1 by electrophoretic mobility shift assay (EMSA) using a ^32P labeled BS2 probe. The DNA-binding domain of DMP1 was mapped to a central region containing the three MYB repeats plus adjacent flanking sequences: a BstEII to NcoI fragment encoding amino acids 87-458 of SEQ ID NO:1 (Table 1). This region alone was necessary and sufficient for DNA binding.

[3] = expression vector 3 μg/10 ml, pGL2BS2 8 μg/10 ml
[4] = additive None, labeled 22 hours

Luciferase Activity ([1]; Table 4, DMP1 coexpressed with the additive named as label (DMP1 row: no additive)) | Luciferase Activity [1, 3] | Substance | % Cells BrdU Positive (NIH-3T3 fibroblasts) [%] | % Cells BrdU Positive in 10% FCS (NIH-3T3 fibroblasts; [4]) [%] | % Cells BrdU Positive in 10% FCS (NIH-3T3 fibroblasts; additive cyclin D2) [%] | % Cells BrdU Positive in 10% FCS (NIH-3T3 fibroblasts; additive cyclin E) [%] | % Cells BrdU Positive in 0.1% FCS (NIH-3T3 fibroblasts; [4]) [%] | % Cells BrdU Positive in 0.1% FCS (NIH-3T3 fibroblasts; additive cyclin D2) [%] | % Cells BrdU Positive in 0.1% FCS (NIH-3T3 fibroblasts; additive cyclin E) [%] | ARF promoter reporter gene expression [2] | 32P-labeled Band (32P-BS2 Probe)
8.4 | 8.4 | DMP1: murine cyclin D-associated myb-like transcription factor, 761 amino acids, SEQ ID NO:1 | 12 | 30 | 80 | 82 | 15 | 57 | 56 | enhanced reporter gene expression | Yes
– | 2.3 | M3: DMP1 deletion mutant (NcoI), amino acids 1-458 of SEQ ID NO:1 | 24 | – | – | – | – | – | – | – | Yes
